Laboratory results published in ChEMBL document CHEMBL5465560, “Selectivity Literature for EUbOPEN Chemogenomic Library” (2024).
Each block holds one compound with its values, some of them ahead of it.

Assays:
[1] = molecular target: [Pyruvate dehydrogenase (acetyl-transferring)] kinase isozyme 1, mitochondrial (Homo sapiens, UniProt Q15118); experiment: Selectivity interaction (Kinase panel (Z-LYTE Assay)) EUB0001632a PDK1; conditions: at 10 µM
[2] = molecular target: T1, Dual specificity tyrosine-phosphorylation-regulated kinase 4 (Homo sapiens) (UniProt Q9NR20); experiment: Selectivity interaction (SelectScreen profiling (Invitrogen)) EUB0000607a DYRK4; conditions: at 2 µM
T1 sequence (whole entry): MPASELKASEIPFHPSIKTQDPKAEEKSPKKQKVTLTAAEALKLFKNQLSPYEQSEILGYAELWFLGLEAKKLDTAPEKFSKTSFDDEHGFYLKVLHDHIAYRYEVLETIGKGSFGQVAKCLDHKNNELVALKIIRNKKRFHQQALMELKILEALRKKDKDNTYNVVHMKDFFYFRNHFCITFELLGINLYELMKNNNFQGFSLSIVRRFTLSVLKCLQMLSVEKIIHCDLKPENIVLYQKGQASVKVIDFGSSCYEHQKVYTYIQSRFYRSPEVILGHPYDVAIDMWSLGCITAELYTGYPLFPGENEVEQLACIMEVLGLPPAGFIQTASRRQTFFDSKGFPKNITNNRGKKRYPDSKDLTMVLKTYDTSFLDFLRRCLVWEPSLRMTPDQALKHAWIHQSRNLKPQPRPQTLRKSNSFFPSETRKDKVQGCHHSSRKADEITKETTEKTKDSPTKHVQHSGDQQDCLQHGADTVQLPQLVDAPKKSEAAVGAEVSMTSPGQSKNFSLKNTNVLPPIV

[3] = molecular target: ALK tyrosine kinase receptor (Homo sapiens, UniProt Q9UM73); experiment: Selectivity interaction (SelectScreen profiling (Invitrogen)) EUB0000607a ALK; conditions: at 2 µM
[4] = molecular target: Tyrosine-protein kinase BTK (Homo sapiens, UniProt Q06187); experiment: Selectivity interaction (ActivX KiNativ screen (kinase selectivity in THP-1 cell lysates)) EUB0000639a BTK; format: subcellular; conditions: lysate, at 0.01 µM
Tyrosine-protein kinase BTK, sequence (Q06187 whole entry): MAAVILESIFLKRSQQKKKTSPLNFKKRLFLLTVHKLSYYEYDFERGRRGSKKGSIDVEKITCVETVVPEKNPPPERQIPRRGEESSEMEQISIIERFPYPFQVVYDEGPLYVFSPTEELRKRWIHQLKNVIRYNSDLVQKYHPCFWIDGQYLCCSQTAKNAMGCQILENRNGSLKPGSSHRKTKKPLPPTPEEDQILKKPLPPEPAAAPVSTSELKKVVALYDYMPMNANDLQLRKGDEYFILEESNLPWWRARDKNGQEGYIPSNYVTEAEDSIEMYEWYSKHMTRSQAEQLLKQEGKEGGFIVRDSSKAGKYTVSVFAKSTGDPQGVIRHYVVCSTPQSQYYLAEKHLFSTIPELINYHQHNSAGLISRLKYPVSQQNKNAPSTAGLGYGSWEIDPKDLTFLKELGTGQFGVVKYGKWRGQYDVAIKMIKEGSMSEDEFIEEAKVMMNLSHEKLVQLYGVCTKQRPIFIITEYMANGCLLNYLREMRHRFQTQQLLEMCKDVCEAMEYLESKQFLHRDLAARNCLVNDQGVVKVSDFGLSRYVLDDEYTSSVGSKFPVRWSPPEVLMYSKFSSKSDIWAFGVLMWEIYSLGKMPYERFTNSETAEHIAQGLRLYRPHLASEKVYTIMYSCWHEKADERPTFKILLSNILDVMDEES

[5] = molecular target: T2, Dual specificity mitogen-activated protein kinase kinase 4 (Homo sapiens) (UniProt P45985); experiment: Selectivity interaction (ActivX KiNativ screen (kinase selectivity in THP-1 cell lysates)) EUB0000639a MAP2K4; format: subcellular; conditions: lysate, at 0.2 µM
T2 sequence (whole entry): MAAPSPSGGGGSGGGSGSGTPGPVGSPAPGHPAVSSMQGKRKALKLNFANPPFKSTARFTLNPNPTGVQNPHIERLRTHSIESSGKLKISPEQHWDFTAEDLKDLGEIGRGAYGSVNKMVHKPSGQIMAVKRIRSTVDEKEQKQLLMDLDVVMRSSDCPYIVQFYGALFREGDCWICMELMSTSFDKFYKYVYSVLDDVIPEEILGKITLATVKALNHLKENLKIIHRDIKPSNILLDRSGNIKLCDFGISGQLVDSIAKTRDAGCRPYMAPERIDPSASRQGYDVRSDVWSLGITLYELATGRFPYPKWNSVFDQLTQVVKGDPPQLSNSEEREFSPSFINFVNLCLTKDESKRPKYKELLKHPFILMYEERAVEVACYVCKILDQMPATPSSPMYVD

[6] = molecular target: Coiled-coil domain-containing protein 6/Tyrosine-protein kinase receptor RET (Homo sapiens) (UniProt P07949+Q16204); experiment: Selectivity interaction (ProQinase) EUB0000171b RET; format: protein assay
Coiled-coil domain-containing protein 6/Tyrosine-protein kinase receptor RET (Homo sapiens), sequence (P07949 29-1114 limits assumed): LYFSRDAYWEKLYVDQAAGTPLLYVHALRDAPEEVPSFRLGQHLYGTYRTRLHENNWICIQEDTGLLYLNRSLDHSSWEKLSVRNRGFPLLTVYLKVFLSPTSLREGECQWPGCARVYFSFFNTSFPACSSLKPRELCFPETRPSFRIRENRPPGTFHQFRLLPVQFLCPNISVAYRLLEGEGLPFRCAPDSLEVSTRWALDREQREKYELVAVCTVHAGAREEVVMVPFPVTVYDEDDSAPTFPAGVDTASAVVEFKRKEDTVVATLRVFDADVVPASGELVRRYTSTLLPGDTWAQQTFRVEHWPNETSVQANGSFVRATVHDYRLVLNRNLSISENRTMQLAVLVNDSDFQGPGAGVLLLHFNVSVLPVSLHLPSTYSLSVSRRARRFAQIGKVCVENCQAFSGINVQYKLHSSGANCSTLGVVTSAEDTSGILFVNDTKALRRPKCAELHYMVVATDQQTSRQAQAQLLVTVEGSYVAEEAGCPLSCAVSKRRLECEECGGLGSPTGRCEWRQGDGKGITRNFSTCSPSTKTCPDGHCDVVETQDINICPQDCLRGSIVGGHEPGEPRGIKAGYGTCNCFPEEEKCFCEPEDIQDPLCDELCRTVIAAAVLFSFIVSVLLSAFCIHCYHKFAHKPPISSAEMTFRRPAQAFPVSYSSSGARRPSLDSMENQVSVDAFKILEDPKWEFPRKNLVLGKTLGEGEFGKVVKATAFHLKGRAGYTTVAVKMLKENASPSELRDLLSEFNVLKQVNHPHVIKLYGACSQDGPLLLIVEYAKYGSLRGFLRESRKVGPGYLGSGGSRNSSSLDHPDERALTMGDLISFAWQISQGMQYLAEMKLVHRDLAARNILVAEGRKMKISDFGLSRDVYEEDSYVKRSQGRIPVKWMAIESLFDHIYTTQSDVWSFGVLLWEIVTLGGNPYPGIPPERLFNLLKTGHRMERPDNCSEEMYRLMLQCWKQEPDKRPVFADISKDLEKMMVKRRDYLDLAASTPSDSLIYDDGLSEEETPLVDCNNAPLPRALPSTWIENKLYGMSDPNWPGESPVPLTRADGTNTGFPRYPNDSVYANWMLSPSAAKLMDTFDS
Coiled-coil domain-containing protein 6/Tyrosine-protein kinase receptor RET (Homo sapiens), sequence (Q16204 2-474 partner limits assumed): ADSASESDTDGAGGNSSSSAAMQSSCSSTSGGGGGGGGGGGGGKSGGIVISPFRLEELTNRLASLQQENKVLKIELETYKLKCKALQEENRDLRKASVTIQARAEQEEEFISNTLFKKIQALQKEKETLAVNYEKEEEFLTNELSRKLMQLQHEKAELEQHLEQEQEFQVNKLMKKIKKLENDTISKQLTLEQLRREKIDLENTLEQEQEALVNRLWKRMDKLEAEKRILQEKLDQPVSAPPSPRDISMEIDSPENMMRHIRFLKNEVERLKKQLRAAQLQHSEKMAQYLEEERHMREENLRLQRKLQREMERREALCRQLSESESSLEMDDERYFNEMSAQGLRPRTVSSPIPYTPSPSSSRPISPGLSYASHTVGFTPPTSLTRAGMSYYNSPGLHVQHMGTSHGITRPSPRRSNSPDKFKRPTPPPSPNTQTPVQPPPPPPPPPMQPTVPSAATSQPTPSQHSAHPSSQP

[7] = molecular target: Hepatocyte growth factor receptor (Homo sapiens, UniProt P08581); experiment: Selectivity interaction (Kinase panel (enzymatic assay)) EUB0000595a MET
Hepatocyte growth factor receptor, sequence (P08581 whole entry): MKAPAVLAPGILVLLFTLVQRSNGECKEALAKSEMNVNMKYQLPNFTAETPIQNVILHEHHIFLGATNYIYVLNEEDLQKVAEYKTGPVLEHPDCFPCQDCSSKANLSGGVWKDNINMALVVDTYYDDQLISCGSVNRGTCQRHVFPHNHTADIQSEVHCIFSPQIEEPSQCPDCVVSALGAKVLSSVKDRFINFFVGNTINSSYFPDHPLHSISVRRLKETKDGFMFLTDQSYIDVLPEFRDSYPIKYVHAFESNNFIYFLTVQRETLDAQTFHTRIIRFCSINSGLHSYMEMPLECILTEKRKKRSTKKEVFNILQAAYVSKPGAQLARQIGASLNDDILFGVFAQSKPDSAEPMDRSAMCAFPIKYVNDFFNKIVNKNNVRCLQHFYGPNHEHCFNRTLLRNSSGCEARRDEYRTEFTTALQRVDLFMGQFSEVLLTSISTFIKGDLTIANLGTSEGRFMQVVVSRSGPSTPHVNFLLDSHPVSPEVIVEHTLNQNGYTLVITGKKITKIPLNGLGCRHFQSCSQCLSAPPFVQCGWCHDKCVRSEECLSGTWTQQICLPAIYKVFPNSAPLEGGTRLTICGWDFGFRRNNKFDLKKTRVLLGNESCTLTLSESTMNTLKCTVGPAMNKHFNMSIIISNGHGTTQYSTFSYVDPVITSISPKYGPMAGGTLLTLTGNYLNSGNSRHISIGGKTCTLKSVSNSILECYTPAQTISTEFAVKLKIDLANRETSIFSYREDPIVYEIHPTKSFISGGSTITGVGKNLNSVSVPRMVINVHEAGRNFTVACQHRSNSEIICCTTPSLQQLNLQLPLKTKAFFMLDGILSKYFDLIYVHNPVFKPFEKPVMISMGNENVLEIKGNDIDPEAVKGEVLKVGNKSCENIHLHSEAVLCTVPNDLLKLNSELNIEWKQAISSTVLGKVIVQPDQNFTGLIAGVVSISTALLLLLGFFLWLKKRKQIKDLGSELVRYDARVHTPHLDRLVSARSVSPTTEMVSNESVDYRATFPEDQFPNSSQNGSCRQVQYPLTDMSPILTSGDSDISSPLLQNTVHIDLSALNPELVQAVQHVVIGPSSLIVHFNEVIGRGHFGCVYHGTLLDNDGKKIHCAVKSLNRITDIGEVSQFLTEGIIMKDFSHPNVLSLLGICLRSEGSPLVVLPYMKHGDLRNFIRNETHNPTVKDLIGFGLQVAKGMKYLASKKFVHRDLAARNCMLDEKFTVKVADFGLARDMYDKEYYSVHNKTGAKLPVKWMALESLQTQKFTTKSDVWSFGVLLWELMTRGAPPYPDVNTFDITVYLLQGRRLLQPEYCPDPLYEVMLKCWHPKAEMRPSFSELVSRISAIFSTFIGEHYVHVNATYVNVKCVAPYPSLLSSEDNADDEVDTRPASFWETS

[8] = molecular target: Tyrosine-protein kinase Fgr (Homo sapiens) (UniProt P09769); experiment: Selectivity interaction (Ambit KINOMEscan and KiNATiv profiling in Jurkat cells) EUB0000090b FGR; format: cell-based; conditions: at 1 µM
Tyrosine-protein kinase Fgr (Homo sapiens), sequence (P09769 2-529 limits assumed): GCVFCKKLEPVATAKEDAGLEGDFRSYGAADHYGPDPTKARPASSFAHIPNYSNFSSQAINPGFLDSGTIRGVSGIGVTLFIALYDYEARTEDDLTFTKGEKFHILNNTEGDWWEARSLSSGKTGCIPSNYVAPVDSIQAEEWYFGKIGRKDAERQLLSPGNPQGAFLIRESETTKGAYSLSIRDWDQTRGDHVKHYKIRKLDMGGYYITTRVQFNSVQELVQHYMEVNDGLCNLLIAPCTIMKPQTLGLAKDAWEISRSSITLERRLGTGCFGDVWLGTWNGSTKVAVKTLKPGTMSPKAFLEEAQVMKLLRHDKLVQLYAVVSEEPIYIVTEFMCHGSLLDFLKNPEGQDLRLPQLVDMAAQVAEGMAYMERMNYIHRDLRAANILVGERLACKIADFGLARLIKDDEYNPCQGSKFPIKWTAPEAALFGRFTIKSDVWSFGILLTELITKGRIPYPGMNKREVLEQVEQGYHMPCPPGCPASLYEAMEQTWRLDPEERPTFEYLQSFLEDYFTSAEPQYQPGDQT

[9] = molecular target: Serine/threonine-protein kinase PAK 3 (Homo sapiens) (UniProt O75914); experiment: Selectivity interaction (Ambit KINOMEscan and KiNATiv profiling in Jurkat cells) EUB0000090b PAK3; format: cell-based; conditions: at 1 µM
Serine/threonine-protein kinase PAK 3 (Homo sapiens), sequence (O75914 whole entry, looked up): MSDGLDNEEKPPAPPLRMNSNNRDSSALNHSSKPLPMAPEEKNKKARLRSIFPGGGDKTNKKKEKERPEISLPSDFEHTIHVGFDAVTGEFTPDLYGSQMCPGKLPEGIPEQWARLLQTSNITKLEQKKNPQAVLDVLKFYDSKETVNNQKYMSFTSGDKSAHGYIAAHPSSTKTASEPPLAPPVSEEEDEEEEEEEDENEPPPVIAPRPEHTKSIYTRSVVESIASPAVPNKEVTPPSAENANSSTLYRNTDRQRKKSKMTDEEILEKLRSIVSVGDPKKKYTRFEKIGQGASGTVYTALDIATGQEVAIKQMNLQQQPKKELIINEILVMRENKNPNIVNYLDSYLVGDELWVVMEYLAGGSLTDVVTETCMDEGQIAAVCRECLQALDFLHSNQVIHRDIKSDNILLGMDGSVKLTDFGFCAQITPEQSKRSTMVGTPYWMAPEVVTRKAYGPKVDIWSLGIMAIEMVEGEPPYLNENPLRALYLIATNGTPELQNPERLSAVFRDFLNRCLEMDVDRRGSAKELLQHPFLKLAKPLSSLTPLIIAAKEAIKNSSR

[10] = molecular target: T3, cGMP-dependent protein kinase 2 (Homo sapiens) (UniProt Q13237); experiment: Selectivity interaction (KinomeScan (DiscoverX)) EUB0000092b PRKG2; conditions: at 10 µM
T3 sequence (whole entry): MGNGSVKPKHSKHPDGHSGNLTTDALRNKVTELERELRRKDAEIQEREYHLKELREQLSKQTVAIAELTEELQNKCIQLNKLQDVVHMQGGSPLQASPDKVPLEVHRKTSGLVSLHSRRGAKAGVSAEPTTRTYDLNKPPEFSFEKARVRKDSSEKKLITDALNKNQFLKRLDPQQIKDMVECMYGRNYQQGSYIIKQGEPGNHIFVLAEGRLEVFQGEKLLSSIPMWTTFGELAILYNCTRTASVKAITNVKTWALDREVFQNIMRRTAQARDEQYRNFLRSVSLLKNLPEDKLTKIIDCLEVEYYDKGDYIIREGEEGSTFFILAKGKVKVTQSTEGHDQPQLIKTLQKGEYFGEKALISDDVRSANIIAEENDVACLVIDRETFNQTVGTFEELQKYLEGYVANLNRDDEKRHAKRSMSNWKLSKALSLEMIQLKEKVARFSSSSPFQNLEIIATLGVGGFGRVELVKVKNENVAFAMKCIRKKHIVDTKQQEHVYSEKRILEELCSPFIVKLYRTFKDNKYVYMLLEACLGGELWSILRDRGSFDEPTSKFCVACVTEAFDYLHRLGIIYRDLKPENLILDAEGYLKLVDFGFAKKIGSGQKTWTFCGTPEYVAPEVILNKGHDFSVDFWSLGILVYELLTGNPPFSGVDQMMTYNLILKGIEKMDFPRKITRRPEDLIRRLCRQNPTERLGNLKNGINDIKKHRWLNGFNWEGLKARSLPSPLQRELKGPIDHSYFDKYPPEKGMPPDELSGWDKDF

[11] = molecular target: Tyrosine-protein kinase ABL2 (Homo sapiens, UniProt P42684); experiment: Selectivity interaction (ActivX KiNativ screen (ex vivo kinase selectivity in human PBMCs)) EUB0001619a ABL2; format: cell-based; conditions: PBMC, at 1 µM
[12] = molecular target: T4, Serine/threonine-protein kinase 17B (Homo sapiens) (UniProt O94768); experiment: Selectivity interaction (KinomeScan (DiscoverX)) EUB0001619a STK17B; conditions: at 1 µM
T4 sequence (whole entry): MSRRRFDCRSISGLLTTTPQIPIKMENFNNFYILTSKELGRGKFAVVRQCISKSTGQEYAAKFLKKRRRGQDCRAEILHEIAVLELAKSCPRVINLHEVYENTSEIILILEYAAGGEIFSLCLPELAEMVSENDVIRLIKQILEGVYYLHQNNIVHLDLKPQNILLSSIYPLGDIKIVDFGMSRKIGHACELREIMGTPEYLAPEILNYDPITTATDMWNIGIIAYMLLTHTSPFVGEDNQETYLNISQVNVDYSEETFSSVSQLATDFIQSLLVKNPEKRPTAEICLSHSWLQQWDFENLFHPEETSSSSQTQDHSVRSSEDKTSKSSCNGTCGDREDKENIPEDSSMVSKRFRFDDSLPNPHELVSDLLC

% of control [1]: 9.23%
Structure (SMILES): Cn1cc(-n2cnc3c(NCc4nc5cc(Cl)c(Cl)cc5[nH]4)nc(N4CCOCC4)nc32)cn1

Structure (SMILES): CNC(=O)Nc1ccc(-c2nc(N3CC4CCC(C3)O4)c3cnn(C4CCC5(CC4)OCCO5)c3n2)cc1
% of inhibition [2]: 4% | % of inhibition [3]: 0%

% of inhibition [4]: -4.4% | % of inhibition [5]: 15.8%
Structure (SMILES): CC[C@@H]1[C@H](F)C(=O)N[C@@H]1COc1nccc2cc(C(N)=O)c(OC)cc12 [ZIMLOVISERTIB]

% of control ([6]; at 1 µM): 84% | % of control ([6]; at 5 µM): 84%
Structure (SMILES): C=CC(=O)Nc1cccc(C(=O)Nc2ccc(Nc3cc(-c4[nH]c(SC)nc4C)ccn3)cc2)c1

Structure (SMILES): COCC(=O)NC/C=C/c1ccc2ncnc(Nc3ccc(Oc4ccc(C)nc4)c(C)c3)c2c1 [CP-724714]
IC50 [7]: > 10 µM

Structure (SMILES): CN(C)C/C=C/C(=O)Nc1ccc(C(=O)N2CCCC(Nc3ncc(Cl)c(-c4c[nH]c5ccccc45)n3)C2)cc1 (stereo not drawn)
% of control [8]: 92% | % of control [9]: 80%

Structure (SMILES): CCC(=O)N1CCN(c2ccc(-n3c(=O)ccc4cnc5ccc(-c6cnc7ccccc7c6)cc5c43)cc2C(F)(F)F)CC1
% of control [10]: 78%

Structure (SMILES): N#Cc1cccc(-c2c[nH]c3ncnc(N4CCOCC4)c23)c1
% of inhibition [11]: -53% | % of control [12]: 100%
